How the values were obtained:
Format in all cases: biochemical
[1] = molecular target: T1, JAK3 (Homo sapiens, UniProt P52333); experiment: JAK3 inhibition assay (33P incorporation into poly(Glu)4Tyr)
T1 sequence (P52333 1-1124): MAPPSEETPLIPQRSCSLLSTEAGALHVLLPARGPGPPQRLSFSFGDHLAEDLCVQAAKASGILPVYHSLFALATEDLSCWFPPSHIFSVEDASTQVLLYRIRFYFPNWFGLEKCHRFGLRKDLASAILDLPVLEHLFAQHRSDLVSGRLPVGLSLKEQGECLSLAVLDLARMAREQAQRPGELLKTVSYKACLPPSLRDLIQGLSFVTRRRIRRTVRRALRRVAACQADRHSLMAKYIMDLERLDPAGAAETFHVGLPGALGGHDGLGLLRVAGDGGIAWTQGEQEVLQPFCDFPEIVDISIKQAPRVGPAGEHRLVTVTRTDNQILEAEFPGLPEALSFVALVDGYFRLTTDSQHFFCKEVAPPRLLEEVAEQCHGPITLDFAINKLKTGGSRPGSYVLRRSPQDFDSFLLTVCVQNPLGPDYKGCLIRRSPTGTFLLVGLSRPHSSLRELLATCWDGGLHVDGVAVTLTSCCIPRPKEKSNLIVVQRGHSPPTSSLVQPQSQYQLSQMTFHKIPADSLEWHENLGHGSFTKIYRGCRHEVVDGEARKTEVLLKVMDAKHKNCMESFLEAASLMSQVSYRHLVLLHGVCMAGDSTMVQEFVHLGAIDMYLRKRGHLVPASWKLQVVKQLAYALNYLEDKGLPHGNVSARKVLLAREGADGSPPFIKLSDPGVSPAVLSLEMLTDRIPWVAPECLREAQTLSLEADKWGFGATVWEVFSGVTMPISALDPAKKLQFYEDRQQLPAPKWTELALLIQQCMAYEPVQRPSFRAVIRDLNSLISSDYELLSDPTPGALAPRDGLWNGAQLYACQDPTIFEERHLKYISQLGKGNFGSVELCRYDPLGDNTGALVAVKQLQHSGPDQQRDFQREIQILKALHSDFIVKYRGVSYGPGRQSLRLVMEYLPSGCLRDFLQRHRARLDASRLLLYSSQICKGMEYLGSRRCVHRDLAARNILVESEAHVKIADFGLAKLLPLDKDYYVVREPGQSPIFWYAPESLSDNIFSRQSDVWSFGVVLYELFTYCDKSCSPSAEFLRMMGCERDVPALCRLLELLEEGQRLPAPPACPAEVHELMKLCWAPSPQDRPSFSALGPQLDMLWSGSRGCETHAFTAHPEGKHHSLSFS
Summary of the method: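 After TCA quench and filter harvest, scintillation counting of 33P measured phosphorylation of poly(Glu)4Tyr (1 μM) by 1 nM JAK3. The 20-min, 25° C. reaction contained 5 μM ATP (200 μCi/μmole) in pH 7.4 HEPES buffer with 10 mM MgCl2.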

[2] = molecular target: JAK2 (Homo sapiens, UniProt O60674); experiment: JAK2 inhibition assay (as Example 3 with JAK-2 enzyme)
Summary of the method: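 In HEPES pH 7.4 buffer with 10 mM MgCl2, 1 mM DTT, 25 mM NaCl and 0.01% BSA, JAK2 enzyme phosphorylated poly(Glu)4Tyr (final 15 μM) using 33P-ATP (final 12 μM) for 20 min at room temperature (25 °C). Reactions stopped with TCA; incorporated 33P measured by scintillation after filtration.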

[3] = molecular target: ROCK I (Homo sapiens, UniProt Q13464); experiment: ROCK-I inhibition assay (radioactive enzyme assay, MBP substrate)
Summary of the method: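 Human ROCK at 5 nM phosphorylated 27 μM myelin basic protein with 13 μM [γ-33P]ATP (final) in HEPES pH 7.5, MgCl2, NaCl, DTT and 1.5% DMSO. Reactions ran 2 h at room temperature before TCA quench and filter-plate scintillation counting. After background subtraction, data were fit to give Ki(app).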

[4] = Table 6, enzyme inhibition data (Ki)
[5] = enzyme inhibition, Ki(app), Table 5

Chain of JAK2 (O60674 whole entry): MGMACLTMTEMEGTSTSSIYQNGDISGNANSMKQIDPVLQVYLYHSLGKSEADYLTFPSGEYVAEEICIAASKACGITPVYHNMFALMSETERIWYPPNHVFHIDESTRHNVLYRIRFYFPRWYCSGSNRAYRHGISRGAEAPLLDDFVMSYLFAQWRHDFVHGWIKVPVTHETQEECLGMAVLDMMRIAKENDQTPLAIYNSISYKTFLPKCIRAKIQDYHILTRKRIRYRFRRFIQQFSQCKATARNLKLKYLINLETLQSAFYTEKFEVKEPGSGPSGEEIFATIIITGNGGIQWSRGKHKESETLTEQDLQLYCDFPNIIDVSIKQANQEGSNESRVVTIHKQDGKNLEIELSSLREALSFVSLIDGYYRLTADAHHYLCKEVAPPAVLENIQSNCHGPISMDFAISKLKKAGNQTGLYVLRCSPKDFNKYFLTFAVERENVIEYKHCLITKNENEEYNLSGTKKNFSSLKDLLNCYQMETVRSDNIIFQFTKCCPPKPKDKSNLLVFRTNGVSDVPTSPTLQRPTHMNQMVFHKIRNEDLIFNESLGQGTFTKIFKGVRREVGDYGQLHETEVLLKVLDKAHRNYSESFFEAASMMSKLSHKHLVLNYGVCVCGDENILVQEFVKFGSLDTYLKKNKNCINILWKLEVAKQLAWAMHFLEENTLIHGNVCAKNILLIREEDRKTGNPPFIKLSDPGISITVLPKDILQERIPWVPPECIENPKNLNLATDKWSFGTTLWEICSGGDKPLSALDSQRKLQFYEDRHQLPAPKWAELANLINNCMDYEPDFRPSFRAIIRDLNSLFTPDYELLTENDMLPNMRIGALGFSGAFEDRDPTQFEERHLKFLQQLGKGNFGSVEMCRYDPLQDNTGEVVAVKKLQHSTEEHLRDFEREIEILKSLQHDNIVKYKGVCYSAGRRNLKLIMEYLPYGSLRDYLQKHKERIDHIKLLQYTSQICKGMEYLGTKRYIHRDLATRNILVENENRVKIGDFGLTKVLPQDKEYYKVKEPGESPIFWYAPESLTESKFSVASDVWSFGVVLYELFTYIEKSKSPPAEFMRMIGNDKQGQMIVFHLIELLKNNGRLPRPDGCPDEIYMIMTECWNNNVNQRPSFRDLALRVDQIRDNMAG
Chain of ROCK I (Q13464 whole entry): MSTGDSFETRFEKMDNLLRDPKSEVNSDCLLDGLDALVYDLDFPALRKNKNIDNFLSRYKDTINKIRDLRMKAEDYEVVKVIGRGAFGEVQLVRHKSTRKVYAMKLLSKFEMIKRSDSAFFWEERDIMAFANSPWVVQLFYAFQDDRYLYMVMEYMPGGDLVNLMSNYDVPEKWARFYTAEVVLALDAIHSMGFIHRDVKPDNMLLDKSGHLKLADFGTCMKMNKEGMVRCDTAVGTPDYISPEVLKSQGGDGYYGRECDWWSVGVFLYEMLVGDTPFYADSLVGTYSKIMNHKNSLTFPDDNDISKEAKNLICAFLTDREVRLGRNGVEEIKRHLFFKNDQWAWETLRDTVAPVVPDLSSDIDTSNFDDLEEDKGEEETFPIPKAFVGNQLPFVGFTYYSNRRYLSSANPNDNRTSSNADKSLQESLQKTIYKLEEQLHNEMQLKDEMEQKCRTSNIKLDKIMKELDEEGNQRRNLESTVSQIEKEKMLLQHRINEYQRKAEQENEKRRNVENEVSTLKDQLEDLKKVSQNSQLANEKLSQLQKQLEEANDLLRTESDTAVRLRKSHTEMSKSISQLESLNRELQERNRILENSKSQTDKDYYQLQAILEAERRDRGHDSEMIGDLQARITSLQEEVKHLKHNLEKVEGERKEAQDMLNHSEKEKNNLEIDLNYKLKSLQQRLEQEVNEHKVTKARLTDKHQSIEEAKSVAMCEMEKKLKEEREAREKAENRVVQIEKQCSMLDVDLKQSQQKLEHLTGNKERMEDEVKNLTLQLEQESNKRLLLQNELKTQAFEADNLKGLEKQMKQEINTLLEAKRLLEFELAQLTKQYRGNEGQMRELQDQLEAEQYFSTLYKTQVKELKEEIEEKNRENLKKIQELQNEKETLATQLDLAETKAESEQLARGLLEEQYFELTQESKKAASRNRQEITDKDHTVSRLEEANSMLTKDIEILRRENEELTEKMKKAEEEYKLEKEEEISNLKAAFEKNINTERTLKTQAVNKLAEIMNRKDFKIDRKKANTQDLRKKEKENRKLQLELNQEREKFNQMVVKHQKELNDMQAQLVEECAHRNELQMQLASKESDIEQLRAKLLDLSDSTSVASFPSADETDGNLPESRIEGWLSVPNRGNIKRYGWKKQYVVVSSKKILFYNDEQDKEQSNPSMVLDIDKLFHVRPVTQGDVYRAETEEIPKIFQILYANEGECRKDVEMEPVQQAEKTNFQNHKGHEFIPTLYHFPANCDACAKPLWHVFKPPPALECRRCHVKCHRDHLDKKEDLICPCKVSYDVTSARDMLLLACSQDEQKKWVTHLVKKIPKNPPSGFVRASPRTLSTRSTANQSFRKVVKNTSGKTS

Row | SMILES | Ki [1, 4] [nM] | Ki [2, 4] [nM] | Ki [3, 4] [nM] | Ki ([1]; enzyme inhibition, Table 5) [nM] | Ki ([2]; enzyme inhibition, Table 5) [nM] | Ki [3, 5] [nM]
1 | CCNC(=O)c1ccc(-c2ccnc3[nH]ccc23)cc1 [compound 273] | 500 to 5000 | < 500 | 500 to 5000 |  |  | 
2 | CC(C)(C(=O)O)c1cccc(-c2ccnc3[nH]ccc23)n1 [compound 96, 2-(6-(1H-pyrrolo[2,3-b]pyridin-4-yl)pyridin-2-yl)-2-methylpropanoic acid] |  |  |  | 500 to 5000 | 500 to 5000 | 500 to 5000
3 | O=C(c1cc(-c2ccnc3[nH]ccc23)c[nH]1)N1CCCC1CO (stereo not drawn) [compound 362] | 500 to 5000 | < 500 | 500 to 5000 |  |  | 
4 | Clc1ccccc1CCNc1cccc(-c2c(Cl)cnc3[nH]ccc23)n1 [compound 75, N-(2-Chlorophenethyl)-6-(5-chloro-1H-pyrrolo[2,3-b]pyridin-4-yl)pyridin-1-amine] |  |  |  | 500 to 5000 | 500 to 5000 | 500 to 5000
5 | Clc1ccc(Cl)c(-c2ccnc3[nH]ccc23)c1 [compound 211] | 500 to 5000 | 500 to 5000 | < 500 |  |  | 
6 | c1cc(-c2cn[nH]c2)c2cc[nH]c2n1 [compound 250] | < 500 | < 500 | < 500 |  |  | 
7 | CCCOC(=O)N1CC[C@H](Nc2c(Cl)cnc3[nH]ccc23)C1 [compound 167] | < 500 | < 500 | > 4000 |  |  | 
8 | CCOc1ccccc1-c1ccnc2[nH]ccc12 [compound 223] | 500 to 5000 | 500 to 5000 | 500 to 5000 |  |  | 
9 | CCCCN(CCC#N)C(=O)c1ccc(-c2ccnc3[nH]ccc23)s1 [compound 321] | < 500 | < 500 | < 500 |  |  | 
10 | C=CCN(CC=C)C(=O)c1cc(-c2c(F)cnc3[nH]ccc23)c[nH]1 [compound 383] | < 500 | < 500 | 500 to 5000 |  |  | 
11 | N#CCC(=O)N1CC[C@H](Nc2c(Cl)cnc3[nH]ccc23)C1 [compound 191] | < 500 | < 500 | > 4000 |  |  | 
12 | Clc1cccc(-c2ccnc3[nH]ccc23)c1Cl [compound 224] | 500 to 5000 | 500 to 5000 | < 500 |  |  | 
13 | O=C(c1cc(-c2c(Cl)cnc3[nH]ccc23)c[nH]1)N1CCCC1CO (stereo not drawn) [compound 346] | < 500 | < 500 | > 4000 |  |  | 
14 | CC(C)CNc1cccc(-c2c(Cl)cnc3[nH]ccc23)n1 [compound 78, 6-(5-Chloro-1H-pyrrolo[2,3-b]pyridin-4-yl)-N-isobutylpyridin-2-anine] |  |  |  | 500 to 5000 | 500 to 5000 | 500 to 5000
15 | N#CCCN(CC(F)(F)F)C(=O)c1csc(-c2ccnc3[nH]ccc23)n1 [compound 403] | < 500 | < 500 | < 500 |  |  | 
16 | CC(C)(C(=O)NCC(F)(F)F)c1cccc(-c2ccnc3[nH]ccc23)n1 [compound 265] | < 500 | < 500 | < 500 |  |  | 
17 | CC(C)(O)c1cccc(-c2ccnc3[nH]ccc23)n1 [compound 123, 2-(6-(1H-pyrrolo[2,3-b]pyridin-4-yl)pyridin-2-yl)propan-2-ol] |  |  |  | < 500 | < 500 | < 500
18 | CN(CCc1ccccn1)C(=O)c1cc(-c2ccnc3[nH]ccc23)c[nH]1 [compound 367] | < 500 | < 500 | < 500 |  |  | 
19 | N#CCCN(Cc1cccnc1)C(=O)c1ccc(-c2ccnc3[nH]ccc23)s1 [compound 316] | < 500 | < 500 | < 500 |  |  | 
20 | Cc1cccnc1-c1ccnc2[nH]ccc12 [compound 74, 4-(3-methylpyridin-2-yl)-1H-pyrrolo[2,3b]pyridine] |  |  |  | 500 to 5000 | > 5000 | 500 to 5000
21 | O=C(NC1CCCC1)c1cc(-c2ccnc3[nH]ccc23)c[nH]1 [compound 263] | < 500 | < 500 | < 500 |  |  | 
22 | Clc1cnc2[nH]ccc2c1-c1ccco1 [compound 136] | < 500 | < 500 | < 500 |  |  | 

Row | SMILES | Ki [1, 4] [nM] | Ki [2, 4] [nM] | Ki [3, 4] [nM] | Ki ([1]; enzyme inhibition, Table 5) [nM] | Ki ([2]; enzyme inhibition, Table 5) [nM] | Ki [3, 5] [nM]
23 | O=C(NCC(F)(F)F)c1cc(-c2c(Cl)cnc3[nH]ccc23)c[nH]1 [compound 276] | < 500 | < 500 | 500 to 5000 |  |  | 
24 | c1cc(CN2CCCCC2)cc(-c2ccnc3[nH]ccc23)c1 [compound 87, 4-(3-Piperidin-1-ylmethyl-phenyl)-1H-pyrrolo[2,3-b]pyridine] |  |  |  | 500 to 5000 | 500 to 5000 | 500 to 5000
25 | O=C(c1cc(-c2ccnc3[nH]ccc23)c[nH]1)N1CCC(O)C1 (stereo not drawn) [compound 366] | 500 to 5000 | 500 to 5000 | 500 to 5000 |  |  | 
26 | CCCCOc1ccccc1-c1ccnc2[nH]ccc12 [compound 241] | > 5000 | > 5000 | > 4000 |  |  | 
27 | Fc1cnc2[nH]ccc2c1-c1ccc(CN(CCC(F)(F)F)CC2CC2)o1 [compound 382] | < 500 | < 500 | 500 to 5000 |  |  | 
28 | CC(C)CN(CC(C)C)C(=O)c1cc(-c2ccnc3[nH]ccc23)c[nH]1 [compound 311] | < 500 | < 500 | < 500 |  |  | 
29 | Cn1cc(-c2c(Cl)cnc3[nH]ccc23)cn1 [compound 70, 5-Chloro-4-(1-methyl-1H-pyrazol-4-yl)-1H-pyrrolo[2,3b]pyridine] |  |  |  | < 500 | < 500 | 500 to 5000
30 | CN(CCC(O)c1ccccc1)c1cccc(-c2ccnc3[nH]ccc23)n1 (stereo not drawn) [compound 53] |  |  |  | 500 to 5000 | 500 to 5000 | < 500
31 | C=CCN(CC=C)C(=O)c1cc(-c2ccnc3[nH]ccc23)c[nH]1 [compound 298] | < 500 | < 500 | < 500 |  |  | 
32 | O=C(NCC(F)F)c1cc(-c2ccnc3[nH]ccc23)c[nH]1 [compound 292] | < 500 | < 500 | < 500 |  |  | 
33 | CCCCN(CCC#N)C(=O)c1cc(-c2c(F)cnc3[nH]ccc23)c[nH]1 [compound 397] | < 500 | < 500 | < 500 |  |  | 
34 | Clc1cnc2[nH]ccc2c1-c1cc2ccccc2s1 [compound 137] | < 500 | < 500 | > 4000 |  |  | 
35 | COC(=O)N1CCCC(Nc2c(Cl)cnc3[nH]ccc23)C1 (stereo not drawn) [compound 173] | < 500 | < 500 | 500 to 5000 |  |  | 
36 | CNCc1cccc(-c2ccnc3[nH]ccc23)c1 [compound 84, Methyl-[3-(1H-pyrrolo[2,3-b]pyridin-4-yl)-benzyl]-amine] |  |  |  | 500 to 5000 | 500 to 5000 | < 500
37 | Clc1cnc2[nH]ccc2c1-c1ccsc1 [compound 82, 5-Chloro-4-(thiophen-3-yl)-1H-pyrrolo[2,3b]pyridine] |  |  |  | < 500 | < 500 | 500 to 5000
38 | CN(C)C1CCN(C(=O)c2cc(-c3ccnc4[nH]ccc34)c[nH]2)C1 (stereo not drawn) [compound 371] | 500 to 5000 | 500 to 5000 | 500 to 5000 |  |  | 
39 | COc1cccc(Cl)c1-c1ccnc2[nH]ccc12 [compound 245] | > 5000 | > 5000 | > 4000 |  |  | 
40 | CCCCN(CCC#N)C(=O)c1cc(-c2ccnc3[nH]ccc23)c[nH]1 [compound 303] | < 500 | < 500 | < 500 |  |  | 
41 | O=C(c1cc(-c2c(Cl)cnc3[nH]ccc23)c[nH]1)N1CCCC(O)C1 (stereo not drawn) [compound 356] | < 500 | < 500 | 500 to 5000 |  |  | 
42 | O=C(NCCC(F)(F)F)c1cc(-c2ccnc3[nH]ccc23)c[nH]1 [compound 293] | < 500 | < 500 | < 500 |  |  | 
43 | N#Cc1ccccc1-c1ccnc2[nH]ccc12 [compound 214] | 500 to 5000 | > 5000 | 500 to 5000 |  |  | 
44 | CCN(Cc1ccccn1)C(=O)c1cc(-c2ccnc3[nH]ccc23)c[nH]1 [compound 305] | < 500 | < 500 | 500 to 5000 |  |  | 
